Experimental data reported in US20190194209A1, “PYRAZOLE CARBOXAMIDE COMPOUNDS AND METHODS OF USE” (Genentech, Inc., priority 2014, published 2019).
Where two headings read alike, the source gives them in different places.

Columns and labels:
[1] = target: T1, full length human wildtype Btk (Homo sapiens, UniProt Q06187); assay: Biochemical Btk Kinase Assay (Example 901); conditions: read-out: BTK LC3K (Ki)
T1 construct: V5 (C); 6xHis (C); made in house; host or cells: Sf9 cells (baculovirus, pFastBac)
Method: Formula I compounds were tested by a standard biochemical Btk, Kinase Assay (Example 901). A generalized procedure for a standard biochemical Btk, Kinase Assay that can be used to test Formula I compounds is as follows. A master mix minus Btk enzyme is prepared containing 1× Cell Signaling kinase buffer (25 mM Tris-HCl, pH 7.5, 5 mM beta-glycerophosphate, 2 mM dithiothreitol, 0.1 mM Na3VO4, 10 mM MgCl2), 0.5 μM Promega PTK Biotinylated peptide substrate 2, and 0.01% BSA. A master mix plus Btk enzyme is prepared containing 1× Cell Signaling kinase buffer, 0.5 μM (micromolar) PTK Biotinylated peptide substrate 2, 0.01% BSA, and 100 ng/well (0.06 mU/well) Btk enzyme. Btk enzyme is prepared as follows: full length human wildtype Btk (accession number NM-000061) with a C-terminal V5 and 6×His tag was subcloned into pFastBac® vector (Invitrogen/Life Technologies) for making baculovirus carrying this epitope-tagged Btk. Generation of baculovirus is done based on Invitrogen's instructions detailed in its published protocol “Bac-to-Bac Baculovirus Expression Systems” (Invitrogen/Life Technologies, Cat. Nos. 10359-016 and 10608-016). Passage 3 virus is used to infect Sf9 cells to overexpress the recombinant Btk protein. The Btk protein is then purified to homogeneity using Ni-NTA column. The purity of the final protein preparation is greater than 95% based on the sensitive Sypro-Ruby staining. A solution of 200 μM ATP is prepared in water and adjusted to pH 7.4 with 1N NaOH. A quantity of 1.25 μL (microliter) of compounds in 5% DMSO is transferred to a 96-well 2 area Costar polystyrene plate. Compounds are tested singly and with an 11-point dose-responsive curve (starting concentration is 10 μM; 1:2 dilution). A quantity of 18.75 μL of master mix minus enzyme (as a negative control) and master mix plus enzyme is transferred to appropriate wells in 96-well 2 area costar polystyrene plate. 5 μL of 200 μM ATP is added to that mixture in the 96-well 2 area Costar polystyrene plate for final ATP concentration of 40 μM. The reaction is allowed to incubate for 1 hour at room temperature. The reaction is stopped with Perkin Elmer 1× detection buffer containing 30 mM EDTA, 20 nM SA-APC, and 1 nM PT66 Ab. The plate is read using time-resolved fluorescence with a Perkin Elmer Envision using excitation filter 330 nm, emission filter 665 nm, and 2nd emission filter 615 nm. IC50 values are subsequently calculated. Alternatively, the Lanthascreen assay can be used to evaluate Btk activity through quantification of its phosphorylated peptide product. The FRET (Fluorescence Resonance Energy Transfer) that occurs between the fluorescein on the peptide product and the terbium on the detection antibody decreases with the addition of inhibitors of Btk that reduce the phosphorylation of the peptide. In a final reaction volume of 25 μL (microliters), Btk (h) (0.1 ng/25 μl reaction) is incubated with 50 mM Hepes pH 7.5, 10 mM MgCl2, 2 mM MnCl2, 2 mM DTT, 0.2 mM NaVO4, 0.01% BSA, and 0.4 uM fluorescein poly-GAT. The reaction is initiated by the addition of ATP to 25 μM (micromolar) the Km of ATP. After incubation for 60 minutes at room temperature, the reaction is stopped by the addition of a final concentration of 2 nM Tb-PY20 detection antibody in 60 mM EDTA for 30 minutes at room temperature. Detection is determined on a Perkin Elmer Envision with 340 nm excitation and emission at 495 nm and 520 nm. Exemplary Btk inhibition […] values are in Table 1.

[2] = test system: CD69 production by B lymphocytes in human whole blood activated with goat F(ab')2 anti-human IgM; assay: CD69 Whole Blood Assay (Example 907); assay type: cell-based; conditions: Lymphocyte, read-out: CD69 Hu Blood FACS (IC70)
From the text: A CD69 Whole Blood Assay can be conducted on Formula I compounds to determine the ability of compounds to inhibit the production of CD69 by B lymphocytes in human whole blood activated by crosslinking surface IgM with goat F(ab′)2 anti-human IgM (Example 907). CD69 is a type II C-type lectin involved in lymphocyte migration and cytokine secretion. CD69 expression represents one of the earliest available indicators of leukocyte activation and its rapid induction occurs through transcriptional activation (Vazquez et al (2009) Jour. of Immunology Published Oct. 19, 2009, doi: 10.4049/jimmunol.0900839). Concentration-dependent inhibition of antigen receptor stimulation by selective Btk inhibitors induces cell surface expression of the lymphocyte activation marker CD69 (Honigberg et al (2010) Proc. Natl. Acad. Sci. 107(29):13075-13080). Thus, CD69 inhibition by selective Btk inhibitors may be correlated with therapeutic efficacy of certain B-cell disorders.
Human blood is obtained from healthy volunteers, with the following restrictions: 1 week drug-free, non-smokers. Blood (approximately 20 mls to test 8 compounds) is collected by venipuncture into Vacutainer® (Becton, Dickinson and Co.) tubes with sodium heparin.
Solutions of Formula I compounds at 10 mM in DMSO are diluted 1:10 in 100% DMSO, then are diluted by three-fold serial dilutions in 100% DMSO for a ten point dose-response curve. The compounds are further diluted 1:10 in PBS and then an aliquot of 5.5 μl of each compound is added in duplicate to a 2 ml 96-well plate; 5.5 μl of 10% DMSO in PBS is added as control and no-stimulus wells. Human whole blood—HWB (100 μl) is added to each well. After mixing the plates are incubated at 37° C., 5% CO2, 100% humidity for 30 minutes. Goat F(ab′)2 anti-human IgM (10 μl of a 500 μg/ml solution, 50 μg/ml final) is added to each well (except the no-stimulus wells) with mixing and the plates are incubated for an additional 20 hours. At the end of the 20 hour incubation, samples are incubated with fluorescent labeled antibodies for 30 minutes, at 37° C., 5% CO2, 100% humidity. Include induced control, unstained and single stains for compensation adjustments and initial voltage settings. Samples are then lysed with PharM Lyse™ (BD Biosciences Pharmingen) according to the manufacturer's instructions. Samples are then transferred to a 96 well plate suitable to be run on the BD Biosciences HTS 96 well system on the LSRII machine. Data acquired and Mean Fluorescence Intensity values were obtained using BD Biosciences DIVA Software. Results are initially analyzed by FACS analysis software (Flow Jo).

[3] = human whole blood, anti-IgM stimulated, 20 hour incubation, CD20 positive cells, FACS

T1 sequence (Q06187 whole entry): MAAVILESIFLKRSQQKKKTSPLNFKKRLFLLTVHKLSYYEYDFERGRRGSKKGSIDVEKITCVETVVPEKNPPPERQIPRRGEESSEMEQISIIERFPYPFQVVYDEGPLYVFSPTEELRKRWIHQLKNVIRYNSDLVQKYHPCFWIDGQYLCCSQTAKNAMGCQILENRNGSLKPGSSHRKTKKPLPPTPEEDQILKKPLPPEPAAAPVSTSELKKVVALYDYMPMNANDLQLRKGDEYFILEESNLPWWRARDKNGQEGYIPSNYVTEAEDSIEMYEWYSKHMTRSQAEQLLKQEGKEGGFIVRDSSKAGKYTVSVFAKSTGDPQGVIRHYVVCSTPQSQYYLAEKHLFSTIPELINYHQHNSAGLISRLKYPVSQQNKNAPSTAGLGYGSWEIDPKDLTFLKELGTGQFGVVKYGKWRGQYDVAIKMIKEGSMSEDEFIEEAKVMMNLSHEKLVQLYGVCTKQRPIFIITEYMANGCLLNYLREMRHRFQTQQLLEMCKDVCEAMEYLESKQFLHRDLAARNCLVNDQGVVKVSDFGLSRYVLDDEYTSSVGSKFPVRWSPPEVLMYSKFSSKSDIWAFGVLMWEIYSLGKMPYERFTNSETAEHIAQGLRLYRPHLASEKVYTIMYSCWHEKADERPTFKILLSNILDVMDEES

CC(C)(C)c1cc(F)c2c(=O)n(-c3nccc(-n4cc(C(N)=O)c(Nc5ccc(Cl)cn5)n4)c3CO)ncc2c1 [Example 116, 1-[2-(6-tert-butyl-8-fluoro-1-oxo-phthalazin-2-yl)-3-(hydroxymethyl)-4-pyridyl]-3-[(5-chloro-2-pyridyl)amino]pyrazole-4-carboxamide]
Ki [1]: 0.403 nM | IC70 [2, 3]: 311 nM

Cn1cc(Nc2nn(-c3ccnc(N4CCn5c(cc6c5CC(C)(C)C6)C4=O)c3CO)cc2C(N)=O)nn1 [Example 119, 1-[2-(7,7-dimethyl-4-oxo-1,2,6,8-tetrahydrocyclopenta[3,4]pyrrolo[3,5-b]-pyrazin-3-yl)-3-(hydroxymethyl)-4-pyridyl]-3-[(1-methyltriazol-4-yl)amino]pyrazole-4-carboxamide]
Ki [1]: 0.317 nM | IC70 [2, 3]: 47.2 nM

CC1(C)Cc2cc3n(c2C1)CCN(c1cccc(-n2cc(C(N)=O)c(Nc4ccncn4)n2)c1CO)C3=O [Example 104, 1-[3-(7,7-dimethyl-4-oxo-1,2,6,8-tetrahydrocyclopenta[3,4]pyrrole[3,5-b]pyrazin-3-yl)-2-(hydroxymethyl)phenyl]-3-(pyrimidin-4-ylamino)pyrazole-4-carboxamide]
Ki [1]: 0.249 nM | IC70 [2, 3]: 36.2 nM

CC1(C)Cc2cc3n(c2C1)CCN(c1nccc(-n2nc(C(N)=O)c4cccnc42)c1CO)C3=O [Example 110, 1-[2-(7,7-dimethyl-4-oxo-1,2,6,8-tetrahydrocyclopenta[3,4]pyrrolo[3,5-b]pyrazin-3-yl)-3-(hydroxymethyl)-4-pyridyl]pyrazolo[3,4-b]pyridine-3-carboxamide]
Ki [1]: 3.32 nM | IC70 [2, 3]: 5300 nM

CC1(C)Cc2cc3n(c2C1)CCN(c1nccc(-n2cc(C(N)=O)c(N)n2)c1CO)C3=O [Example 117, 3-amino-1-[2-(7,7-dimethyl-4-oxo-1,2,6,8-tetrahydrocyclopenta[3,4]pyrrolo[3,5-b]pyrazin-3-yl)-3-(hydroxymethyl)-4-pyridyl]pyrazole-4-carboxamide]
Ki [1]: 2.45 nM | IC70 ([2]; Homo sapiens, 20 h): 494 nM

C[C@H]1CN(C2COC2)CCN1c1ccc(Nc2nn(-c3cc(F)cc(N4CCn5c(cc6c5CC(C)(C)C6)C4=O)c3CO)cc2C(N)=O)nc1 [Example 145, 1-[3-(7,7-dimethyl-4-oxo-1,2,6,8-tetrahydrocyclopenta[3,4]pyrrolo[3,5-b]pyrazin-3-yl)-5-fluoro-2-(hydroxymethyl)phenyl]-3-[[5-[(2S)-2-methyl-4-(oxetan-3-yl)piperazin-1-yl]-2-pyridyl]amino]pyrazole-4-carboxamide]
Ki [1]: 0.103 nM | IC70 [2, 3]: 30.4 nM

Cn1cc(-c2nn(-c3cc(F)cc(-n4ncc5cc(C(C)(C)C)cc(F)c5c4=O)c3CO)cc2C(N)=O)cn1 [Example 127, 1-[3-(6-tert-butyl-8-fluoro-1-oxo-phthalazin-2-yl)-5-fluoro-2-(hydroxymethyl)phenyl]-3-(1-methylpyrazol-4-yl)pyrazole-4-carboxamide]
Ki [1]: 1.3 nM | IC70 [2, 3]: 5000 nM

Cn1cc(Nc2nn(-c3ccnc(-n4ncc5cc(C(C)(C)C)cc(F)c5c4=O)c3CO)cc2C(N)=O)nn1 [Example 111, 1-[2-(6-tert-butyl-8-fluoro-1-oxo-phthalazin-2-yl)-3-(hydroxymethyl)-4-pyridyl]-3-[(1-methyltriazol-4-yl)amino]pyrazole-4-carboxamide]
Ki [1]: 0.131 nM | IC70 [2, 3]: 77.3 nM

CC(C)(C)c1cc(F)c2c(=O)n(-c3nccc(-n4cc(C(N)=O)c(Nc5ccc(N6CCNCC6)cn5)n4)c3CO)ncc2c1 [Example 118, 1-[2-(6-tert-butyl-8-fluoro-1-oxo-phthalazin-2-yl)-3-(hydroxymethyl)-4-pyridyl]-3-[(5-piperazin-1-yl-2-pyridyl)amino]pyrazole-4-carboxamide]
Ki [1]: 0.248 nM | IC70 [2, 3]: 574 nM

CC1(C)Cc2cc3n(c2C1)CCN(c1nccc(-n2nc(C(N)=O)c4ccccc42)c1CO)C3=O [Example 108, 1-[2-(7,7-dimethyl-4-oxo-1,2,6,8-tetrahydrocyclopenta[3,4]pyrrolo[3,5-b]pyrazin-3-yl)-3-(hydroxymethyl)-4-pyridyl]indazole-3-carboxamide]
Ki [1]: 1.83 nM | IC70 [2, 3]: 726 nM

C[C@H]1CN(C2COC2)CCN1c1ccc(Nc2nn(-c3ccnc(-n4ncc5cc(C(C)(C)C)cc(F)c5c4=O)c3CO)cc2C(N)=O)nc1 [Example 120, 1-[2-(6-tert-butyl-8-fluoro-1-oxo-phthalazin-2-yl)-3-(hydroxymethyl)-4-pyridyl]-3-[[5-[(2S)-2-methyl-4-(oxetan-3-yl)piperazin-1-yl]-2-pyridyl]amino]pyrazole-4-carboxamide]
Ki [1]: 0.106 nM | IC70 [2, 3]: 98.6 nM
